Experimental data from US7951921B2, “Multivalent carriers of bi-specific antibodies” (Immunomedics, Inc., priority 2003, dated 2011).
Primed or numbered codes have the meaning given here. DTPA′ = diethylenetriaminepentaacetic acid

What was measured:
[1] = system: hMN-14IgG^(I253A)-(734scFv)2; experiment: Complex formation of radiolabeled DTPA peptides with bsMAb, size exclusion HPLC; format: binding; conditions: for complexing of bsMAb with radiolabeled indium-DTPA chelates: radioiodinated bsMAb, size exclusion HPLC
From the text: The binding of In-DTPA peptides to the anti-In-DTPA antibody hMN-14IgG^(I253A)-(734scFv)2 was examined by size exclusion HPLC. The bsMAb was radioiodinated using chloramines-T (Greenwood and Hunter). Binding of the radioiodinated bsMAbs to CEA, WI2 (rat anti-MN-14 idiotypic antibody) and radiolabeled peptidyl DTPA chelate was examined on analytical size exclusion HPLC. Approximately 90% of the radioiodinated bsMAb bound to CEA upon treatment with 10-20× molar excess of CEA. The bsMAb complexed with radiolabeled indium-DTPA chelates (IMP-156 or IMP-192).
An IMP 192 kit was labeled with Tc-99m 20.9 mCi. Aliquots from the kit were diluted and mixed with hMN-14IgG^(I253A)-(734scFv)2 in the following molar ratios (peptide/Ab) 1:5, 1:1, and 20:1. The peptide/antibody mixtures, the peptide alone and the antibody alone were examined on a Bio-Sil SEC 250 300 mm×7.8 mm HPC column eluted at 1 mL/min with 0.2 M phosphate buffer pH 6.8.
A known standard of hMN-14IgG^(I253A)-(734scFv)2 eluted from the column at about 9.41 minutes (FIG. 3). A known standard of Tc-99m IMP 192 eluted from the column at about 14.85 minutes (FIG. 4).

[2] = not told; cited from earlier work
[3] = cited from earlier work
[4] = target: IMP 246 [Ac-Cys-Lys(DTPA)-Tyr-Lys(DTPA)-NH2]2; experiment: size exclusion HPLC; In-111 IMP 246 mixed with bsAb at 1:10 (IMP 246:bsAb) mole ratio
c734 IgG [5] = experiment: Affinity blocking studies on IMP 240-coated BIAcore chip (surface plasmon resonance); format: binding
Description: (§1) The binding of In-DTPA peptides to the anti-In-DTPA antibody hMN-14IgG^(I253A)-(734scFv)2 was examined by affinity blocking studies using the IMP 240 peptide, Ac-Lys(DPTA)-Cys-NH2, which comprises a single DPTA group and a single Cys residue that can be used to form disulfide bridges with a second molecule having a free sulfhydryl group.
(§2) The binding studies were performed on a chip coated with IMP 240 using the disulfide connection as recommended by BIAcore. The chip surface was regenerated after each assay with 100 μL 0.025 M In-DTPA in HBS-In-citrate buffer as described. The binding studies were done with picomoles of antibody therefore binding was very sensitive to the slightest trace of In-DTPA left after the displacement wash.
Studies were performed with c734-IgG to compare the In-DTPA peptide binding behavior of this IgG to the hMN-14IgG^(I253A)-(734scFv)2.

[6] = system: hMN-14IgG^(I253A)-(734scFv)2; experiment: as above; format: binding
Description: as §1, §2

[7] = target: IMP 246 [Ac-Cys-Lys(DTPA)-Tyr-Lys(DTPA)-NH2]2; experiment: size exclusion HPLC; labeled IMP 246 mixed with hMN-14 IgG^(I253A)-(734scFv)2, 16 hr at 37° C. in mouse serum
[8] = target: CEA (carcinoembryonic antigen) (UniProt P06731); experiment: analytical size exclusion HPLC of radioiodinated bsMAb mixed with 10-20x molar excess of CEA
Sequence of UniProt P06731 (P06731 35-685 limits assumed): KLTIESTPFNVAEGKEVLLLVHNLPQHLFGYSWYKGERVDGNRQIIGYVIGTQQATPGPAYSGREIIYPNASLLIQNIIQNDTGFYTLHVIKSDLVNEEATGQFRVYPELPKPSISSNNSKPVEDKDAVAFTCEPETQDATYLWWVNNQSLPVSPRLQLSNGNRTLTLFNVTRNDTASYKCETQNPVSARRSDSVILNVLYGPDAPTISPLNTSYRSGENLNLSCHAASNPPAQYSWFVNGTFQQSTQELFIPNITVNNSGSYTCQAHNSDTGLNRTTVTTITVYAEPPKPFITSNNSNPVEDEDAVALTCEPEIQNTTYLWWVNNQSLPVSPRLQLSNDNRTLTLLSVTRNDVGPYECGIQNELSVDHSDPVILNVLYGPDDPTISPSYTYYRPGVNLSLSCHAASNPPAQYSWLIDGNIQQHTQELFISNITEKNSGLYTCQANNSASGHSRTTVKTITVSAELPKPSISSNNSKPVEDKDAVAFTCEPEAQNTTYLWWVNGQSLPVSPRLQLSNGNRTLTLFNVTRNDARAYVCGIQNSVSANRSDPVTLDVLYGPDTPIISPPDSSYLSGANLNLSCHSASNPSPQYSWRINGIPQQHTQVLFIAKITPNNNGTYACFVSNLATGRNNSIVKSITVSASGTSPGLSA

[9] = target: hMN-14IgG^(I253A)-(734scFv)2; experiment: SPR blocking assay; peptide premixed with antibody, IMP 240 chip
c734 IgG [10] = experiment: as above

Molecule: Ac-Lys(DTPA)-Tyr-Lys(DTPA)-Lys(TSCG-Cys)-NH2 [IMP 192]
- peptide/antibody complexes formed (HPLC traces) ([1]; Tc-99m IMP 192 mixed with antibody, molar ratios 1:5, 1:1, 20:1): essentially only one peptide/antibody complex is formed
- complexing of bsMAb with radiolabeled indium-DTPA chelates [1]: complexed

Molecule: O=C(CCCN1C(=O)C=CC1=O)ON1C(=O)CC(S(=O)(=O)O)C1=O (centres unmarked) [Sulfo-GMBS, N-[γ-Maleimidobutyryloxy] sulfosuccinimide ester]
- Membrane Permeable [2]: No

Molecule: O=C(CCSSc1ccccn1)NCCCCCC(=O)ON1C(=O)CCC1=O [LC-SPDP, N-succinimidyl 6-[3′-(2-pyridyldithio)propionamido]hexanoate]
- Water Soluble [3]: No

Molecule: CC(SSc1ccccn1)c1ccc(C(=O)NCCCCCC(=O)ON2C(=O)CC(S(=O)(=O)O)C2=O)cc1 (centres unmarked) [Sulfo-LC-SMPT, sulfosuccinimidyl 6-[a-methyl-a-(2-pyridyl-dithio)toluamido]hexanoate]
- Water Soluble [3]: Yes

Molecule: C=CS(=O)(=O)c1ccc(C(=O)ON2C(=O)CCC2=O)cc1 [SVSB]
- Membrane Permeable [2]: Yes

Molecule: hMN-14IgG-(734scFv)2 (bispecific antibody)
- percent of In-111 label in the complex peak [4]: 83%

Molecule: O=C(CCCc1ccc(N2C(=O)C=CC2=O)cc1)ON1C(=O)CC(S(=O)(=O)O)C1=O (centres unmarked) [Sulfo-SMPB, sulfosuccinimidyl 4-[p-maleimidophenyl]butyrate]
- Water Soluble [3]: Yes

Molecule: O=C(CCCN1C(=O)C=CC1=O)ON1C(=O)CCC1=O [GMBS, N-[γ-Maleimidobutyryloxy] succinimide ester]
- Membrane Permeable [2]: Yes

Molecule: O=C(O)CCCCCN1C(=O)C=CC1=O [EMCA]
- Membrane Permeable [2]: No

Molecule: O=C(ON1C(=O)CCC1=O)C1CCC(CN2C(=O)C=CC2=O)CC1 (centres unmarked) [SMCC, succinimidyl 4-(N-maleimidomethyl)cyclohexane-1-carboxylate]
- Membrane Permeable [2]: Yes

Molecule: O=C(CCSSc1ccccn1)NCCCCCC(=O)ON1C(=O)CC(S(=O)(=O)O)C1=O (centres unmarked) [Sulfo-LC-SPDP, sulfosuccinimidyl 6-[3′-(2-pyridyldithio)-propionamido] hexanoate]
- Water Soluble [3]: Yes

Molecule: O=C(CBr)NCCC(=O)ON1C(=O)CCC1=O [SBAP]
- Membrane Permeable [2]: Yes

Molecule: O=C(ON1C(=O)CCC1=O)c1cccc(N2C(=O)C=CC2=O)c1 [MBS, m-maleimidobenzoyl-N-hydoxysuccinimide ester]
- Membrane Permeable [2]: Yes

Molecule: O=C(CI)Nc1ccc(C(=O)ON2C(=O)CC(S(=O)(=O)O)C2=O)cc1 (centres unmarked) [Sulfo-SIAB, sulfosuccinimidyl(4-iodoacetyl)aminobenzoate]
- Membrane Permeable [2]: No

Molecule: O=C(ON1C(=O)CC(S(=O)(=O)O)C1=O)c1cccc(N2C(=O)C=CC2=O)c1 (centres unmarked) [Sulfo-MBS, m-maleimidobenzoyl-N-hydoxysulfosuccinimide ester]
- Membrane Permeable [2]: No

Molecule: O=C(ON1C(=O)CC(S(=O)(=O)O)C1=O)C1CCC(CN2C(=O)C=CC2=O)CC1 (centres unmarked) [Sulfo-SMCC, sulfosuccinimidyl 4-(N-maleimidomethyl)cyclohexane-1-carboxylate]
- Membrane Permeable [2]: No

Molecule: Ac-Phe-Lys(DTPA)-Tyr-Lys(DTPA)-NH2 (Ac-FK(DTPA′)YK(DTPA′)-NH2) [IMP 156]
- equivalents of peptide needed to block binding to the chip (c734 IgG [5]): two or more equivalents
- complexing of bsMAb with radiolabeled indium-DTPA chelates [1]: complexed
- affinity of antibody for In-IMP 156 relative to a single In-DTPA for a c734 IgG binding arm [6]: far higher
- equivalents of peptide that block binding to the chip [6]: one equivalent
- blocking of antibody binding to the IMP 240 chip ([6]; peptide mixed with antibody in a 1:1 ratio): completely blocked

Molecule: O=C(CCCCCNC(=O)C1CCC(CN2C(=O)C=CC2=O)CC1)ON1C(=O)CCC1=O (centres unmarked) [LC-SMCC, succiminidyl-4-(N-maleimidomethyl)cyclohexane-1-carboxy-(6-amido-caproate)]
- Membrane Permeable [2]: No

Molecule: O=C(CI)Nc1ccc(C(=O)ON2C(=O)CCC2=O)cc1 [SIAB, N-succinimidyl(4-iodoacetyl)aminobenzoate]
- Membrane Permeable [2]: Yes

Molecule: O=C(O)CCCCCCCCCCN1C(=O)C=CC1=O [KMUA]
- Membrane Permeable [2]: No

Molecule: Cl.NCCSSCCC(=O)O [AEDP]
- Membrane Permeable [2]: No

Molecule: O=C(CCCCCN1C(=O)C=CC1=O)ON1C(=O)CCC1=O [EMCS, N-[ε-maleimidocaproyloxy]succinimide ester]
- Membrane Permeable [2]: Yes

Molecule: O=C(CCCCCN1C(=O)C=CC1=O)ON1C(=O)CC(S(=O)(=O)O)C1=O (centres unmarked) [Sulfo-EMCS, N-[ε-maleimidocaproyloxy]sulfosuccinimide ester]
- Membrane Permeable [2]: No

Molecule: O=C(CCCCCCCCCCN1C(=O)C=CC1=O)ON1C(=O)CC(S(=O)(=O)O)C1=O.[Na] (centres unmarked) [Sulfo-KMUS]
- Membrane Permeable [2]: No

Molecule: O=C(CCSSc1ccccn1)ON1C(=O)CCC1=O [SPDP, N-succinimidyl 3-(2-pyridyldithio)propionate]
- Membrane Permeable [2]: Yes

Molecule: O=C(O)CCN1C(=O)C=CC1=O [BMPA]
- Membrane Permeable [2]: No

Molecule: CCN=C=NCCCN(C)C [EDC, 1-ethyl-3-(3-dimethylaminopropyl)-carbodiimide]
- Water Soluble [3]: Yes

Molecule: CC(=O)SCCC(=O)ON1C(=O)CCC1=O [SATP]
- Membrane Permeable [2]: Yes

Molecule: Ac-Phe-Gln-Tyr-Lys(DTPA)-NH2 (Ac-FQYK(DTPA′)-NH2) [IMP 233]
- blocking of antibody binding to the IMP 240 chip (c734 IgG [5]; 4:1 peptide/c734 IgG): did not completely block
- blocking of antibody binding to the IMP 240 chip ([6]; four equivalents of peptide premixed with the antibody): not completely blocked

Molecule: hMN-14IgG^(I253A)-(734scFv)2 (bispecific antibody)
- percent of HPLC area in the complex peak after 16 hr in mouse serum [7]: > 90%
- percent of bsMAb bound [8]: 90%
- percent of In-111 label in the complex peak [4]: 90%

Molecule: CC(SSc1ccccn1)c1ccc(C(=O)ON2C(=O)CCC2=O)cc1 (centres unmarked) [SMPT, 4-succinimidyloxycarbonyl-methyl-(2-pyridyldithio)-toluene]
- Water Soluble [3]: No

Molecule: Ac-FK(DTPA′)YK(DTPA′)-NH2 (also: DTPA loaded with indium) [IMP 156 Ac-Phe-Lys(DTPA)-Tyr-Lys(DTPA)-NH2]
- equivalents of peptide needed to block binding to the IMP 240 chip [9]: 1 equivalents
- equivalents of peptide needed to block binding to the IMP 240 chip (c734 IgG [10]): 2 equivalents
